According to patent US20240270762A1, “PENICILLIN-BINDING PROTEIN INHIBITORS” (priority 2021, published 2024):
pEC50: −log10 of the molar value. Converted amounts (≈) assume the structure as drawn.

What was measured:
[1] = biological target: T1, PBP2 from Neisseria gonorrhoeae (FA19) (Neisseria gonorrhoeae, UniProt P08149); assay: Bocillin-FL fluorescence polarization competition binding, N. gonorrhoeae PBP2; settings: fluorescence polarization competition binding assay using Bocillin-FL, read-out: N. gonorrhoeae PBP2 Potency
T1 construct: made in house
T1 sequence (P08149 whole entry): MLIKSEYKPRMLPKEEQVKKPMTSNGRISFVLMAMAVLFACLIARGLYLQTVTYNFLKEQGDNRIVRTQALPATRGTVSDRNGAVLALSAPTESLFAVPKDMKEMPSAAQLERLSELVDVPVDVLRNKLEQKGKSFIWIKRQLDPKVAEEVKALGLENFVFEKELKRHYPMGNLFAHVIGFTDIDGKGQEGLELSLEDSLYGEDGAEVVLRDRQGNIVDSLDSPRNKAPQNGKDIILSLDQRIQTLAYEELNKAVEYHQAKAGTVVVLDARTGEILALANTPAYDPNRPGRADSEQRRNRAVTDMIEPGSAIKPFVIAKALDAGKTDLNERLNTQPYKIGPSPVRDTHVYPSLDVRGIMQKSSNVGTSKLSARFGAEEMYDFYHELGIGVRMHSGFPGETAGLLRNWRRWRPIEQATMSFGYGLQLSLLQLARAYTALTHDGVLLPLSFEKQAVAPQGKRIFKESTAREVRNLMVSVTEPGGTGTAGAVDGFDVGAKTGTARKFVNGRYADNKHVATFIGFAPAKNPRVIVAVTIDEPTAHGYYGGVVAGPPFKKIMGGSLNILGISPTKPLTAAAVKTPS
Source text: To determine the ability of boronic acid-based test PBP inhibitors to bind Penicillin Binding Proteins (PBPs), Bocillin-FL (fluorescently-labeled penicillin V; ThermoFisher Scientific) was used in a fluorescence polarization (FP) competition binding assay to assess inhibitor binding to PBP3 from Escherichia coli (K-12), PBP3 from Pseudomonas aeruginosa (PAO1), PBP1a and PBP3 from Acinetobacter baumannii (ATCC 19606), and PBP2 from Neisseria gonorrhoeae (FA19). PBPs were cloned and purified as described previously (E. coli PBP3, King, D. T, et al., ACS Infectious Diseases 2015, 1, 175-184; P. aeruginosa PBP3, Han et. al., PNAS 2010, 107 (51), 22002-22007; A. baumannii PBPs, Penwell et. al., Antimicrob. Agents Chemother. 2015, 59 (3), 1680-1689; N. gonorrhoeae PBP2, Singh et. al., J. Biol. Chem. 2019, 294 (38), 14020-14032). To establish assay conditions for competition binding, enzyme titration/saturation binding experiments were initially performed. Bocillin-FL was prepared at 0.2 μM in a buffer comprised of 50 mM Hepes (pH 8.0), 300 mM NaCl and 10% (v/v) glycerol for reactions with E. coli, P. aeruginosa and N. gonorrhoeae PBPs, and 25 mM Tris (pH 8.0), 200 mM NaCl, 10% (v/v) glycerol and 0.005% (v/v) Tween 20 for reactions with A. baumannii PBPs. Saturation binding was performed by mixing 40 μl of PBP solutions ranging in concentrations from 0-24 μM with 40 μl of the 0.2 μM Bocillin-FL solution, in individual wells of a black 384-well microplate. FP was measured immediately upon mixing (Excitation, 490 nm; Emission, 520 nm; g-factor, 0.96), using a Cytation3 (BioTek) microplate reader and measured continuously for up to 120 minutes. […] The competition binding assay (80 μl final volume) was validated using beta-lactams and PBPs at final concentrations of: 1.5 μM for E. coli PBP3; 0.75 μM for P. aeruginosa PBP3; 1 μM for A. baumannii PBP1a; 0.2 μM for A. baumannii PBP3; and 0.25 μM for N. gonorrhoeae PBP2. Bocillin-FL was at 0.1 μM (0.05 μM with A. baumannii PBP1a) and beta-lactam concentrations ranged from 0-1,000 μM. E. coli PBP3 was incubated with increasing concentrations of ampicillin in a black 384-well microplate (Corning) for 30 minutes. P. aeruginosa PBP3 was incubated for 15 minutes with aztreonam, whereas A. baumannii PBP1a and PBP3 were incubated for 15 minutes with meropenem, and then Bocillin-FL was added followed immediately by the FP measurement for up to 60 minutes. […] The beta-lactam potency was reported as the concentration of beta-lactam required to reduce the amount of PBP bound-Bocillin-FL by 50% (EC50). […] Binding assays for boronic acid PBP inhibitors were performed in an identical fashion for the respective PBPs.

E. coli ATCC 25922 = assay: microbe, parasite or virus in culture; assay type: cell-based; settings: Escherichia coli, ATCC25922, read-out: MIC E. coli 25922
E. coli AG100 = assay: microbe, parasite or virus in culture; assay type: cell-based; settings: Escherichia coli, AG100, read-out: MIC E. coli AG100
E. coli 901C = assay: microbe, parasite or virus in culture; assay type: cell-based; settings: Escherichia coli, read-out: MIC E. coli 901C
E. coli D22 = assay: microbe, parasite or virus in culture; assay type: cell-based; settings: Escherichia coli, D22, read-out: MIC E. coli D22
K. pneumoniae 848844 = assay: microbe, parasite or virus in culture; assay type: cell-based; settings: Klebsiella pneumoniae, 848844, read-out: MIC K. pneumoniae 848844
K. pneumoniae UMM = assay: microbe, parasite or virus in culture; assay type: cell-based; settings: Klebsiella pneumoniae, read-out: MIC K. pneumoniae UMM
K. pneumoniae SI-117 = assay: microbe, parasite or virus in culture; assay type: cell-based; settings: Klebsiella pneumoniae, SI117, read-out: MIC K. pneumoniae SI-117
P. aeruginosa ATCC 27853 = assay: microbe, parasite or virus in culture; assay type: cell-based; settings: Pseudomonas aeruginosa, ATCC27853, read-out: MIC P. aeruginosa ATCC 27853
A. baumannii ATCC 19606 = assay: microbe, parasite or virus in culture; assay type: cell-based; settings: Acinetobacter baumannii, ATCC19606, read-out: MIC, A. baumannii ATCC 19606
P. aeruginosa ATCC 35151 = assay: microbe, parasite or virus in culture; assay type: cell-based; settings: Pseudomonas aeruginosa, ATCC35151, read-out: MIC P. aeruginosa ATCC 35151
[2] = tested on: P. aeruginosa (ΔmexAB-oprM); assay: Broth microdilution MIC in CAMHB; assay type: cell-based; settings: Pseudomonas aeruginosa; read-out: MIC P. aeruginosa ΔmexAB-oprM
N. gonorrhoeae FA1090 = assay: Liquid broth MIC in Fastidious broth; settings: Neisseria gonorrhoeae, FA1090, read-out: Minimum Inhibitory Concentration (MIC), N. gonorrhoeae FA 1090
N. gonorrhoeae MS11 = assay: Liquid broth MIC in Fastidious broth; settings: Neisseria gonorrhoeae, MS11, read-out: Minimum Inhibitory Concentration (MIC), N. gonorrhoeae MS11
N. gonorrhoeae WHO M = assay: Liquid broth MIC in Fastidious broth; settings: Neisseria gonorrhoeae, read-out: Minimum Inhibitory Concentration (MIC), N. gonorrhoeae WHO M
N. gonorrhoeae WHO K = assay: Liquid broth MIC in Fastidious broth; settings: Neisseria gonorrhoeae, read-out: Minimum Inhibitory Concentration (MIC), N. gonorrhoeae WHO K
N. gonorrhoeae WHO X = assay: Liquid broth MIC in Fastidious broth; settings: Neisseria gonorrhoeae, read-out: Minimum Inhibitory Concentration (MIC), N. gonorrhoeae WHO X
N. gonorrhoeae WHO Z = assay: Liquid broth MIC in Fastidious broth; settings: Neisseria gonorrhoeae, read-out: Minimum Inhibitory Concentration (MIC), N. gonorrhoeae WHO Z

SMILES	pEC50 [1]	MIC (E. coli ATCC 25922)	MIC (E. coli AG100)	MIC (E. coli 901C)	MIC (E. coli D22)	MIC (K. pneumoniae 848844)	MIC (K. pneumoniae UMM)	MIC (K. pneumoniae SI-117)	MIC (P. aeruginosa ATCC 27853)	MIC (A. baumannii ATCC 19606)	MIC (P. aeruginosa ATCC 35151)	MIC [2]	MIC (N. gonorrhoeae FA1090)	MIC (N. gonorrhoeae MS11)	MIC (N. gonorrhoeae WHO M)	MIC (N. gonorrhoeae WHO K)	MIC (N. gonorrhoeae WHO X)	MIC (N. gonorrhoeae WHO Z)
CCN1CCN(C(=O)NC(C(=O)N[C@H]2Cc3cccc(C(=O)O)c3OB2O)c2ccc(P(=O)(O)O)c(O)c2)C(=O)C1=O (stereo partly drawn) [Example 21, (3R)-3-(2-(4-ethyl-2,3-dioxopiperazine-1-carboxamido)-2-(3-hydroxy-4-phosphonophenyl)acetamido)-2-hydroxy-3,4-dihydro-2H-benzo[e][1,2]oxaborinine-8-carboxylic acid]	> 5.00	8 to 16 mg/L (≈ 13.2 to 26.5 µM)	8 to 16 mg/L (≈ 13.2 to 26.5 µM)	< 1 mg/L	2 to 4 mg/L (≈ 3.31 to 6.62 µM)	> 128 mg/L	8 to 16 mg/L (≈ 13.2 to 26.5 µM)	> 128 mg/L	8 to 16 mg/L (≈ 13.2 to 26.5 µM)	2 to 4 mg/L (≈ 3.31 to 6.62 µM)	< 1 mg/L	32 to 64 mg/L (≈ 53 to 106 µM)	< 1 mg/L	< 1 mg/L	< 1 mg/L	< 1 mg/L	< 1 mg/L	< 1 mg/L
O=C(O)c1cccc2c1OB(O)[C@@H](NC(=O)[C@@H](NC(=O)c1ccn[nH]c1=O)c1ccc(P(=O)(O)O)cc1)C2 (single isomer, unassigned) [Example 177]	> 5.00	> 128 mg/L	> 128 mg/L	2 to 4 mg/L (≈ 3.69 to 7.38 µM)	32 to 64 mg/L (≈ 59 to 118 µM)	> 128 mg/L	> 128 mg/L	> 128 mg/L	> 128 mg/L	> 128 mg/L	2 to 4 mg/L (≈ 3.69 to 7.38 µM)	> 128 mg/L	< 1 mg/L	1 to 2 mg/L (≈ 1.84 to 3.69 µM)	< 1 mg/L	4 to 8 mg/L (≈ 7.38 to 14.8 µM)	16 to 32 mg/L (≈ 29.5 to 59 µM)	4 to 8 mg/L (≈ 7.38 to 14.8 µM)
O=C(N[C@@H](C(=O)N[C@H]1Cc2cccc(C(=O)O)c2OB1O)c1ccc(P(=O)(O)O)cc1)c1ccc(C(F)(F)F)cn1 (single isomer, unassigned) [Example 193]	> 5.00	32 to 64 mg/L (≈ 53.9 to 108 µM)	32 to 64 mg/L (≈ 53.9 to 108 µM)	< 1 mg/L	2 to 4 mg/L (≈ 3.37 to 6.74 µM)	> 128 mg/L	> 128 mg/L	> 128 mg/L	> 128 mg/L	> 128 mg/L	2 to 4 mg/L (≈ 3.37 to 6.74 µM)	32 to 64 mg/L (≈ 53.9 to 108 µM)	< 1 mg/L	< 1 mg/L	< 1 mg/L	1 to 2 mg/L (≈ 1.69 to 3.37 µM)	4 to 8 mg/L (≈ 6.74 to 13.5 µM)	< 1 mg/L
O=C(O)c1cccc2c1OB(O)[C@@H](NC(=O)C(NC(=O)c1ncccc1Cl)c1ccc(P(=O)(O)O)cc1)C2 (stereo partly drawn) [Example 183, (3R)-3-(2-(3-chloropicolinamido)-2-(4-phosphonophenyl)acetamido)-2-hydroxy-3,4-dihydro-2H-benzo[e][1,2]oxaborinine-8-carboxylic acid]	> 5.00	> 128 mg/L	> 128 mg/L	8 to 16 mg/L (≈ 14.3 to 28.6 µM)	32 to 64 mg/L (≈ 57.2 to 114 µM)	> 128 mg/L	> 128 mg/L	> 128 mg/L	> 128 mg/L	> 128 mg/L	8 to 16 mg/L (≈ 14.3 to 28.6 µM)	> 128 mg/L	1 to 2 mg/L (≈ 1.79 to 3.57 µM)	4 to 8 mg/L (≈ 7.15 to 14.3 µM)	1 to 2 mg/L (≈ 1.79 to 3.57 µM)	16 to 32 mg/L (≈ 28.6 to 57.2 µM)	16 to 32 mg/L (≈ 28.6 to 57.2 µM)	16 to 32 mg/L (≈ 28.6 to 57.2 µM)
